Assay results taken from article PMC12040169 (PLOS Biology, 2025).

Experiment: in vitro
Conditions: human, hela cells, % viability

Structure (SMILES) | viability at 28.5 h, 10 µM [%]
CC(=O)N1CCc2sccc2C1c1ccc(NCc2ccc(F)cc2)cc1 (stereo not drawn) [CBK286442] | 90.3
COc1ccccc1-c1ncc(OCC(F)(F)F)nc1NC(=O)c1ccco1 [CBK145277] | 98.3
O=C(CCS(=O)(=O)c1ccccc1)Nc1c(F)cc(F)cc1OC1CCNCC1 [CBK050226T] | 87.4
Cc1cc(C)c(NC(=O)C2CCCN2CCCN(C)C)c(C)c1 (stereo not drawn) [CBK278172F] | 97.1
CCOC(=O)c1cnn(C2CCCN(c3cccc(C#N)n3)C2)c1 (stereo not drawn) [CBK306430] | 81.5
CC(C)Nc1nccnc1SCc1ccc(Cl)c(Cl)c1 [CBK103657] | 89.8
O=C(CCc1nc2ccccc2c(=O)[nH]1)N1CCN(Cc2ccc(Cl)s2)CC1 [CBK296937] | 83.9
CCCn1c(C)cc(-c2csc(NC(=O)CCn3c(-c4cccs4)n[nH]c3=S)n2)c1C [CBK295326] | 90.8
Cc1cc2n(n1)C(c1ccc(C(=O)O)cc1)Nc1ccccc1-2 (stereo not drawn) [CBK287000] | 80.8
Cc1[nH]c(=O)[nH]c(=O)c1Cc1ccccc1 [CBK113244] | 113
CN1CCCN(c2cc(C(F)(F)F)c3scc(C(=O)NCc4cccc(F)c4F)c3n2)CC1 [CBK036386T] | 87.9
COc1ccccc1CN[C@@H]1CCC[C@H]1Cc1cc(C)no1 [CBK283005] | 103
O=C(C1CCCC1)N1CCCC1c1nc2ccccc2[nH]1 (stereo not drawn) [CBK282378] | 88.5
CSc1nsc(SCC(=O)c2ccc(NC(C)=O)cc2)n1 [CBK268755] | 82.3
Cn1cc(CNCCCN2CCc3ccccc32)c(-c2cccnc2)n1 [CBK306316] | 93.3
CN1CCN(CC(=O)N2c3ccccc3C(C)(c3ccc(Cl)cc3)CC2(C)C)CC1 (stereo not drawn) [CBK059202] | 88.1
CC(C)C1OC(NCCN2CCOCC2)=NC1=O (stereo not drawn) [CBK074097T] | 91
CC1(C)CC2CC(C)(CN2Cc2c(O)ccc3cc(-c4nc(-c5ccc(Br)cc5)cs4)c(=O)oc23)C1 (stereo not drawn) [CBK263831] | 103
COc1ccc(CC(=O)N2CCN(C(C)c3nc4ccccc4s3)CC2)cc1F (stereo not drawn) [CBK297733] | 95.9
N#C/C(=C\c1ccc(-c2cccc(C(=O)O)c2)o1)c1nc2ncc(Br)cc2[nH]1 [CBK265054] | 96.1
CC(C)[C@H](CO)Nc1nccnc1-c1ccccc1F [CBK037987] | 106
COc1ccc(C(=O)NC(c2ccc(OC)c(OC)c2)c2cc(Cl)c3cccnc3c2O)cc1 (stereo not drawn) [CBK263992] | 96.3

Structure (SMILES) | viability at 28.5 h, 10 µM [%]
CCOc1cc(C(c2c[nH]c3ccccc23)c2c[nH]c3ccccc23)cc([N+](=O)[O-])c1O [CBK266061] | 101
O=C(c1cc2ncc(Br)cn2n1)N1CCOCC1 [CBK058513] | 97.9
COCCNC(=O)c1cc2n(n1)C(C(F)(F)F)CC(c1ccccc1)N2 (stereo not drawn) [CBK307610] | 114
CS(=O)(=O)N1CC2(CCN(CCCC#N)CC2)c2ccccc21 [CBK084014] | 97.9
CC(=O)Nc1ccc(-c2cc(-c3ccc(NC(C)=O)cc3)nc(-c3ccc([N+](=O)[O-])cc3)n2)cc1 [CBK261273] | 91.5
CCCCC1=NN2C(=N)/C(=C/c3cn(Cc4ccc([N+](=O)[O-])cc4)c4ccccc34)C(=O)N=C2S1 [CBK264320] | 106
Cc1ccc(-n2nnc3c(SCC(=O)Nc4ccc(F)cc4)ncnc32)cc1 [CBK287542] | 112
COCCc1nc(C2CCC2)n(Cc2ccccc2C)n1 [CBK307238] | 91.8
CCn1c(CN2CCn3c(nnc3C3CC3)C2)nc2c(F)cccc21 [CBK306300] | 96.6
Cc1cc2cc(C(=O)NCC3(N(C)C)CCN(C)CC3)ccc2o1 [CBK282623] | 90.2
CCC(CO)NCc1ccc(OCC(N)=O)cc1 (stereo not drawn) [CBK304670] | 100
CCOc1ccc(CN2CCNC(=O)C2CC(=O)O)cc1 (stereo not drawn) [CBK269242] | 107
CC(C)Oc1ccc(C(=O)C2=C(O)C(=O)N(Cc3cccnc3)C2c2ccncc2)cc1 (stereo not drawn) [CBK264920] | 90
O=c1nc(CNc2ccc(Br)cc2)[nH][nH]1 [CBK288403] | 86.2
COc1cccc2c3c([nH]c12)C1(CCCN(CCc2ccc(F)cc2)C1)NCC3 (stereo not drawn) [CBK039251] | 97.9
CCCn1cc(C(=O)NCC2CCN(c3ccccc3F)C2)c(C)n1 (stereo not drawn) [CBK304634] | 79
O=C(NCCNc1cnccn1)c1cc(F)cc(Br)c1 [CBK304554] | 99.6
O=C(c1ccco1)N1CCN(c2ccc(-c3ccc(F)c(Cl)c3)cn2)CC1 [CBK037683] | 93.9
CCCc1ccc(S(=O)(=O)Nc2ccc(C(=O)N(CC)CC)cc2)cc1 [CBK034403] | 92.3
CN1CCCN(c2ccc(NS(=O)(=O)c3ccc(F)cc3F)c3ccccc23)CC1 [CBK001499C] | 64.8
O=C(NCc1cccnc1)N1CCN(CCc2ccccc2)CC1 [CBK158906] | 93.7
Cc1cc(C)n(CCCNC(=O)c2ncoc2-c2ccc(F)cc2)n1 [CBK282357] | 91.3

Structure (SMILES) | viability at 28.5 h, 10 µM [%]
COc1ccc(C(C)C)cc1-c1cn2ccnc2c(NCc2ccco2)n1 [CBK037269] | 98.2
Cc1cccn2cc(CC(=O)OCC(=O)NC(C)(C)C)nc12 [CBK304966] | 110
O=C1NN(c2ccc(F)c(Cl)c2)C(=O)/C1=C/c1ccc(-c2ccc(Cl)cc2)o1 [CBK095978] | 98.1
COc1ccc([C@]23CN(C)C[C@H]2CCN(C(=O)Nc2cccc(Br)c2)C3)cc1OC [CBK075106T] | 105
COc1ccc(-c2ccc3ccc(NC(=O)C(C)C)nc3n2)cc1C [CBK073665] | 92.3
CCOC(=O)C1(Cc2ccc(F)cc2F)CCCN(C(C)=O)C1 (stereo not drawn) [CBK307516] | 106
NC(=O)c1c(NC(=O)Cn2ccc([N+](=O)[O-])n2)sc2c1CCCC2 [CBK269139] | 113
O=C(O)c1ccccc1NS(=O)(=O)/C=C/c1ccccc1 [CBK042363] | 102
CN1CCN(C(=O)CN(c2cccc([N+](=O)[O-])c2)S(=O)(=O)c2ccccc2)CC1 [CBK264121] | 87.6
O=C(CSc1nc(-c2cccs2)cc(C(F)(F)F)n1)NN1CCOCC1 [CBK307375] | 98.1
O=C(Cc1ccc(Cl)c(Cl)c1)N1CCC2(CCN(C(=O)c3cc(F)c(F)cc3F)C2)C1 (stereo not drawn) [CBK131386] | 95.9
Cc1ccc(C(=O)N[C@H]2CO[C@H]3[C@@H]2OC[C@@H]3n2cc(-c3ccccc3)nn2)cc1 [CBK289504] | 81.4
CCCNC(=O)Cn1cnc2sc(C(=O)Nc3ccccc3OC)c(C)c2c1=O [CBK071910] | 90.3
c1ccc(OCCNc2nccnc2N2CCNCC2)cc1 [CBK013527] | 93.3
O=C(NCCS(=O)(=O)c1ccccc1)c1cnc(-c2ccc(Cl)cc2)c(-c2ccco2)c1 [CBK037546] | 96.4
CCc1ccc(C(O)CNC2CCN(CC(F)F)CC2)cc1 (stereo not drawn) [CBK304144] | 109
Cc1ccc(NC(=O)c2ccccc2NS(=O)(=O)c2ccc(C(C)C)cc2)cc1 [CBK113800] | 77.8
Cc1ccc(N2C(=O)c3ccccc3NC23C(=O)N(C)c2ccc(Br)cc23)cc1 (stereo not drawn) [CBK103752] | 85.2
CCOCCN(CCOCC)c1nnc2ccc(Cl)nn12 [CBK010024] | 99.6
c1ccc(Oc2cccc(OCCCCN3CCNCC3)c2)cc1 [CBK266027G] | 92.6
CN(C)S(=O)(=O)N1CCN(c2ccc([N+](=O)[O-])c(NCCc3ccccc3)c2)CC1 [CBK266498] | 102
O=C(CSc1nc[nH]n1)Nc1ccccc1[N+](=O)[O-] [CBK265005] | 100

Structure (SMILES) | viability at 28.5 h, 10 µM [%]
Sc1nnc(COc2ccccc2)n1/N=C/c1ccc(-c2ccccc2)cc1 [CBK265269] | 117
C=CCn1c(SCC(=O)N2CCN(c3ccccc3)CC2)nnc1-c1ccc(N)cc1 [CBK267956] | 99.8
Cc1ccc(-c2nccnc2OCc2ccc3c(c2)OCO3)c(C)c1 [CBK106982] | 93.1
c1ccc2c(CSc3ncn[nH]3)cccc2c1 [CBK025610] | 114
CCCOC1CCCN(Cc2c(C)n(CC(N)=O)c3ccccc23)C1 (stereo not drawn) [CBK282797] | 99.2
Cc1ccc(OCC(=O)NCCCN(C)C)cc1 [CBK263595] | 98.3
Cc1c[nH]c(CN(C)c2cc([C@H]3C[C@@H](N)C3)nc(N3CCCC3)n2)n1 [CBK306798] | 84.4
CC(C)(C)c1csc(Nc2nc3cc4c(cc3s2)OCO4)n1 [CBK287491] | 93.9
N#Cc1ccncc1NCc1ccccc1CN1CCCC1CO (stereo not drawn) [CBK304021] | 85
COc1cccc(C2C(C(=O)c3ccc(Br)cc3)=C(O)C(=O)N2CCN2CCOCC2)c1OC (stereo not drawn) [CBK264855] | 110
CCCc1ncc(C[n+]2ccccc2C)c(N)n1 [CBK024255C] | 96.1
Cc1cccc(CCNC(=O)CC2CCN(C(=O)CC3CCCCC3)CC2)c1 [CBK285964] | 114
O=S(=O)(Nc1cccc(OC(F)(F)F)c1)c1ccc(N2CCNCC2)c2ccccc12 [CBK003935C] | 111
CC(CNC(=O)c1cncc(O)c1)NC(=O)c1cncc(O)c1 (stereo not drawn) [CBK278174] | 89.2
Cc1cc(C)c2c(OCC(=O)NC(C)C)nn(C)c2n1 [CBK306393] | 87.4
Cc1cccc(-c2nc3ccc(NC(=O)CCC(=O)O)cc3o2)c1 [CBK269773] | 95.1
Cc1cc(NC(=O)CN(C)Cc2ccc(Br)cc2)on1 [CBK305599] | 97.3
O=C(O)C1CCCCC1C(=O)NCc1cccnc1 (stereo not drawn) [CBK261695] | 91.7
COc1cccc(C(=O)Nc2nc3ccccc3n2Cc2ccccc2)c1OC [CBK299811] | 91.4
CC1CCCC(N2CCN(Cc3ccccn3)CC2)C1 (stereo not drawn) [CBK263450] | 93
COc1ccc(CN2CCCN(c3ccnc(OCC4COc5ccccc5O4)n3)CC2)cc1 (stereo not drawn) [CBK083234T] | 96.8
